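How tested: cells in 96-well plates exposed to compound for 48 hours at five concentrations. GI50 is the concentration that inhibits growth by half.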 Calls of active or inactive are those of the source. Rule as the data show it: active = GI50 up to about 1.1 µM and inactive = higher.
Assays:
Experiment in all cases: NCI-60 cell line screen, 48 h
OVCAR-5 = system: OVCAR-5
OVCAR-4 = system: OVCAR-4
HT-29 = system: HT-29
A549 = system: A549
SF-268 = system: SF-268
SW-620 = system: SW-620
786-0 = system: 786-0
HCT-116 = system: HCT-116
NCI-H522 = system: NCI-H522
MDA-MB-231 = system: MDA-MB-231
NCI-H23 = system: NCI-H23
DU-145 = system: DU-145
HCT-15 = system: HCT-15
SF-295 = system: SF-295
CAKI-1 = system: CAKI-1
HCC 2998 = system: HCC 2998
U-251 = system: U-251
RPMI-8226 = system: RPMI-8226
MOLT-4 = system: MOLT-4
MDA-N = system: MDA-N
UO-31 = system: UO-31
NCI/ADR-RES = system: NCI/ADR-RES
T47D = system: T47D
SNB-19 = system: SNB-19
MDA-MB-435 = system: MDA-MB-435
LOX IMVI = system: LOX IMVI
UACC-62 = system: UACC-62
M14 = system: M14
EKVX = system: EKVX
A498 = system: A498
SR = system: SR
CCRF-CEM = system: CCRF-CEM
OVCAR-8 = system: OVCAR-8
SK-MEL-28 = system: SK-MEL-28
UACC-257 = system: UACC-257
BT-549 = system: BT-549
SN12C = system: SN12C
HL-60 = system: HL-60
SK-MEL-5 = system: SK-MEL-5
PC-3 = system: PC-3
K562 = system: K562
COLO 205 = system: COLO 205
MCF7 = system: MCF7
SK-OV-3 = system: SK-OV-3
HOP-62 = system: HOP-62
TK-10 = system: TK-10
OVCAR-3 = system: OVCAR-3
ACHN = system: ACHN
SK-MEL-2 = system: SK-MEL-2
SF-539 = system: SF-539
KM12 = system: KM12
HOP-92 = system: HOP-92
IGROV-1 = system: IGROV-1
NCI-H460 = system: NCI-H460
SNB-75 = system: SNB-75
Malme-3M = system: Malme-3M

Measured: GI50

CC(C)(C)NC(=O)/C(=C\Sc1ccccc1)c1ccc2c(c1)OCO2
30.8 µM: HCT-15
inactive: OVCAR-5 30.6 µM | OVCAR-4 51.3 µM | HT-29 17.9 µM | A549 31 µM | SF-268 16.2 µM | SW-620 37.8 µM | 786-0 31.9 µM | HCT-116 24.3 µM | NCI-H522 17.9 µM | MDA-MB-231 21.8 µM | NCI-H23 35.3 µM | DU-145 37.2 µM | SF-295 39.1 µM | CAKI-1 38.4 µM | HCC 2998 37.3 µM | U-251 30 µM | RPMI-8226 22.8 µM | MOLT-4 21.9 µM | MDA-N 22.8 µM | UO-31 26.9 µM | NCI/ADR-RES 24.2 µM | T47D 26 µM | SNB-19 38.7 µM | MDA-MB-435 22.2 µM | LOX IMVI 16.1 µM | UACC-62 19.8 µM | M14 21.8 µM | EKVX 28.4 µM | A498 20.4 µM | SR 25.8 µM | CCRF-CEM 28.5 µM | OVCAR-8 32 µM | SK-MEL-28 49 µM | UACC-257 25.4 µM | BT-549 75.9 µM | SN12C 26.7 µM | HL-60 18.7 µM | SK-MEL-5 17.6 µM | PC-3 22.5 µM | K562 43.6 µM | COLO 205 22.4 µM | MCF7 26.1 µM | SK-OV-3 52.5 µM | HOP-62 44.3 µM | TK-10 44.8 µM | OVCAR-3 30.8 µM | ACHN 36.9 µM | SK-MEL-2 15.5 µM | SF-539 35.3 µM | KM12 32.4 µM | HOP-92 15.5 µM | IGROV-1 29.2 µM

COc1ccc(Nc2nc(NNC(=O)Cc3ccccc3)nc(NNC(=O)c3ccncc3)n2)cc1
active: EKVX 0.955 µM
> 10 µM: HCT-15
inactive: OVCAR-5 > 10 µM | NCI-H460 > 10 µM | OVCAR-4 > 10 µM | HT-29 > 10 µM | A549 > 10 µM | SF-268 > 10 µM | SW-620 > 10 µM | 786-0 > 10 µM | HCT-116 > 10 µM | NCI-H522 > 10 µM | MDA-MB-231 > 10 µM | NCI-H23 > 10 µM | DU-145 > 10 µM | SNB-75 > 10 µM | SF-295 > 10 µM | CAKI-1 > 10 µM | HCC 2998 > 10 µM | U-251 > 10 µM | MOLT-4 > 10 µM | MDA-N > 10 µM | UO-31 > 10 µM | NCI/ADR-RES > 10 µM | T47D > 10 µM | SNB-19 > 10 µM | MDA-MB-435 > 10 µM | LOX IMVI > 10 µM | UACC-62 1.95 µM | M14 > 10 µM | A498 > 10 µM | SR > 10 µM | CCRF-CEM > 10 µM | OVCAR-8 > 10 µM | SK-MEL-28 > 10 µM | Malme-3M > 10 µM | UACC-257 > 10 µM | BT-549 > 10 µM | SN12C > 10 µM | SK-MEL-5 > 10 µM | K562 > 10 µM | COLO 205 > 10 µM | MCF7 > 10 µM | SK-OV-3 > 10 µM | HOP-62 > 10 µM | TK-10 > 10 µM | OVCAR-3 > 10 µM | ACHN > 10 µM | SF-539 > 10 µM | KM12 > 10 µM | HOP-92 > 10 µM | IGROV-1 > 10 µM

— ChEMBL document CHEMBL1201862, “PubChem BioAssay data set” (2004)
